Our source for the MIC values is patent publication US10633407B2, “14-membered ketolides and methods of their preparation and use” (President and Fellows of Harvard College, priority 2014, dated 2020).

SMILES strings stand for the structures. In brackets after ≈: the same amount, converted by molar mass.

Some test systems named below: A. baumannii ATCC 19606; K. pneumoniae ATCC 10031; P. aeruginosa ATCC 27853; P. aeruginosa MP-7 PAO1.
Assay in all cases: CLSI broth dilution MIC determination
Holding throughout (type): cell-based

For another assay, the system named is E. coli ATCC 25922. The source says: (§1) MIC data was collected for the novel macrolides that this platform has produced against over 21 unique strains of B. subtilis, E. coli, S. aureus, S. pneumoniae, and H. influenzae, including several multidrug-resistant strains, with a special focus on macrolide resistant mechanisms (vide supra). Azithromycin (Azithro) and Solithromycin (Solithro) were included as a control macrolides in many cases. CLSI standard procedures for broth dilution MIC determination were used. […] These genotypes can be constitutive or inducible.

In assay [1] the test system is E. coli MP-532 clinical-cErmB. The conditions noted are these: E. coli MP-532, clinical-cErmB.
Source text: as §1

A further assay has as its system E. coli MP-541 clinical.
Source text: as §1

The subject of assay [2] is E. coli MP-9 ATCC25922:tolC. The conditions noted are these: E. coli MP-9, ATCC25922:tolC.
Source text: as §1

In assay [3] the test system is S. aureus (MRSA) MP-513 ST-228 cErm (Clinical-cErm).
Source text: as §1

Another assay deals with S. aureus ATCC 29213.
Source text: as §1

In assay [4] the test system is S. aureus MP-17 ATCCBAA-977 (BAA 977 iErm). The note with it: S. aureus MP-17, ATCCBAA-977, iErm.
Source text: as §1

The test system of the next assay is S. aureus MRSA: USA300.
Source text: as §1

Assay [5] concerns P. aeruginosa MP-8 PAO1:mex (mex-oprM-deletion). The conditions noted are these: P. aeruginosa MP-8, PAO1:mex, mex-oprM-deletion.
Assay [6] has as its system K. pneumoniae MP-548 clinical.
Assay [7] relates to K. pneumoniae MP-546 Clinical-MDR.
Assay [8] concerns A. baumannii MP-577 Clinical-AZT low.
The test system of assay [9] is A. baumannii MP-576 Clinical-MDR.
The test system of the next assay is E. coli CTX-M-14. The note with it: Gram-negative.
Source text: as §1

Another assay has as its system E. coli NDM-1. The conditions noted are these: Gram-negative.
Source text: as §1

In the next assay the test system is E. coli TEM-1. The conditions noted are these: E. coli TEM-1; Gram-negative.
Source text: as §1

For the next assay, the system named is H. influenzae ATCC49247. The conditions noted are these: Gram-negative.
Source text: as §1

The subject of another assay is K. pneumoniae TEM-10. The note with it: Gram-negative.
Source text: as §1

The subject of a further assay is S. aureus MRSA: USA100. The conditions noted are these: S. aureus MRSA: USA100; Gram-positive.
Source text: as §1

A further assay has as its system S. aureus USA600, GISA. The conditions noted are these: S. aureus USA600, GISA; Gram-positive.
Source text: as §1

In another assay the test system is S. aureus erm A genotype. The conditions noted are these: S. aureus erm A genotype; Gram-positive.
Source text: as §1

A further assay concerns S. pneumoniae ATCC 49619. The conditions noted are these: S. pneumoniae ATCC 49619; Gram-positive.
Source text: as §1

The subject of assay [10] is S. pneumoniae mef A genotype (second strain so labelled). The conditions noted are these: Gram-positive.
Source text: as §1

The next assay concerns S. pyogenes ATCC 19615. The note with it: S. pyogenes ATCC 19615; Gram-positive.
In assay [11] the test system is S. pyogenes Macrolide-resistant. The conditions noted are these: S. pyogenes Macrolide-resistant; Gram-positive.
Another assay concerns E. faecalis ATCC 29212. The conditions noted are these: E. faecalis ATCC 29212; Gram-positive.
Assay [12] has as its system E. faecalis Vancomycin-resistant. The conditions noted are these: E. faecalis Vancomycin-resistant; Gram-positive.
The subject of assay [13] is A. baumannii imipenem-resistant. The note with it: Gram-negative.
The test system of assay [14] is A. baumannii chromosomal class C. The note with it: Gram-negative.
A further assay deals with A. baumannii IMP-4. The note with it: Gram-negative.
The subject of a further assay is K. pneumoniae KPC-2. The note with it: Gram-negative.
The next assay relates to K. pneumoniae SHV-12. The note with it: Gram-negative.
Assay [15] deals with P. aeruginosa HPA101-1477. The conditions noted are these: Gram-negative.
The test system of assay [16] is H. influenzae Erythro >4, Azithro 1. The conditions noted are these: H. influenzae Erythro >4, Azithro 1; Gram-negative. An excerpt:
MIC data was collected for the novel macrolides that this platform has produced against over 21 unique strains of B. subtilis, E. coli, S. aureus, S. pneumoniae, and H. influenzae, including several multidrug-resistant strains, with a special focus on macrolide resistant mechanisms (vide supra). […] CLSI standard procedures for broth dilution MIC determination were used. […] These genotypes can be constitutive or inducible.

Where [17] appears, read: S. aureus MRSA: USA300 (MP-549, msr(a)).
Where [18] appears, read: A. baumannii ATCC 19606 (MP-15).
The mark [19] stands for this setting: K. pneumoniae ATCC 10031 (MP-14).
Where [20] appears, read: P. aeruginosa ATCC 27853 (MP-3).

Take `CCC1OC(=O)C(C)(F)C(=O)C(C)C(OC2OC(C)CC(N(C)C)C2O)C(C)(OC)CC(C)C(=O)C(C)C2N(CC=C=Cn3cc(-c4ccnc(N)n4)nn3)C(=O)OC12C` (stereo not drawn) [FSM-22737]: the MIC with E. coli ATCC 25922 (E. coli ATCC 25922 (MP-4)) was 16 µg/mL (≈ 19 µM); in [1] it was >64 µg/mL; against E. coli MP-541 clinical, 16 µg/mL (≈ 19 µM); in assay [2], 2 µg/mL (≈ 2.37 µM); in assay [3] it was >64 µg/mL; in the assay on S. aureus ATCC 29213 (S. aureus ATCC 29213 (MP-12)), 0.25 µg/mL (≈ 0.297 µM). In addition, the MIC in assay [4] was 0.25 µg/mL (≈ 0.297 µM); in the assay with S. aureus MRSA: USA300 (setting [17]) it was 0.25 µg/mL (≈ 0.297 µM); against A. baumannii ATCC 19606 (setting [18]), 16 µg/mL (≈ 19 µM); against K. pneumoniae ATCC 10031 (setting [19]), 8 µg/mL (≈ 9.49 µM); against P. aeruginosa ATCC 27853 (setting [20]), >64 µg/mL; against P. aeruginosa MP-7 PAO1, >64 µg/mL. Moreover, the MIC in assay [5] was 16 µg/mL (≈ 19 µM); in assay [6], 64 µg/mL (≈ 75.9 µM); in assay [7], >64 µg/mL; in assay [8], 32 µg/mL (≈ 38 µM); in [9] it was >64 µg/mL.
Regarding `CCC1OC(=O)C(C)(F)C(=O)C(C)C(OC2OC(C)CC(N(C)C)C2O)C(C)(OC)CC(C)C(=O)C(C)C2N(CC=C=Cn3cc(-c4nccc(N)n4)nn3)C(=O)OC12C` (stereo not drawn) [FSM-22738], the MIC is 8 µg/mL (≈ 9.49 µM) with E. coli ATCC 25922 (E. coli ATCC 25922 (MP-4)); >64 µg/mL in assay [1]; 16 µg/mL (≈ 19 µM) with E. coli MP-541 clinical; 1 µg/mL (≈ 1.19 µM) in [2]; 32 µg/mL (≈ 38 µM) in [3]; 0.25 µg/mL (≈ 0.297 µM) against S. aureus ATCC 29213 (S. aureus ATCC 29213 (MP-12)). Also, the MIC was 0.25 µg/mL (≈ 0.297 µM) in assay [4]; 0.25 µg/mL (≈ 0.297 µM) in the assay on S. aureus MRSA: USA300 (setting [17]); 8 µg/mL (≈ 9.49 µM) with A. baumannii ATCC 19606 (setting [18]); 4 µg/mL (≈ 4.75 µM) with K. pneumoniae ATCC 10031 (setting [19]); 64 µg/mL (≈ 75.9 µM) against P. aeruginosa ATCC 27853 (setting [20]); 64 µg/mL (≈ 75.9 µM) in the assay on P. aeruginosa MP-7 PAO1. Moreover, the MIC in [5] was 8 µg/mL (≈ 9.49 µM); in assay [6], 64 µg/mL (≈ 75.9 µM); in assay [7], >64 µg/mL; in assay [8], 32 µg/mL (≈ 38 µM); in assay [9] it was >64 µg/mL.
Consider `CCC1OC(=O)C(C)(F)C(=O)C(C)C(OC2OC(C)CC(N(C)C)C2O)C(C)(OC)CC(C)C(=O)C(C)C2N(CC=C=Cn3cc(-c4cnccn4)nn3)C(=O)OC12C` (stereo not drawn) [FSM-22740], for which the MIC against E. coli ATCC 25922 (E. coli ATCC 25922 (MP-4)) was 16 µg/mL (≈ 19.3 µM); in [1] it was >64 µg/mL; in the assay with E. coli MP-541 clinical, 16 µg/mL (≈ 19.3 µM); in [2] it was 2 µg/mL (≈ 2.42 µM); in assay [3] it was 64 µg/mL (≈ 77.3 µM); in the assay with S. aureus ATCC 29213 (S. aureus ATCC 29213 (MP-12)) it was 0.25 µg/mL (≈ 0.302 µM). Moreover, the MIC in assay [4] was 0.25 µg/mL (≈ 0.302 µM); against S. aureus MRSA: USA300 (setting [17]) it was 0.25 µg/mL (≈ 0.302 µM); against A. baumannii ATCC 19606 (setting [18]) it was 16 µg/mL (≈ 19.3 µM); in the assay with K. pneumoniae ATCC 10031 (setting [19]), 8 µg/mL (≈ 9.66 µM); in the assay with P. aeruginosa ATCC 27853 (setting [20]), >64 µg/mL; against P. aeruginosa MP-7 PAO1, >64 µg/mL. Also, the MIC in assay [5] is 16 µg/mL (≈ 19.3 µM); in [6] it was >64 µg/mL; in assay [7] it was >64 µg/mL; in assay [8] it was 64 µg/mL (≈ 77.3 µM); in assay [9], >64 µg/mL.
`CC[C@H]1OC(=O)[C@H](C)C(=O)[C@H](C)[C@@H](O[C@@H]2OC(C)CC(N(C)C)C2O)[C@](C)(OC)C[C@@H](C)C(=O)[C@H](C)[C@H]2N(C/C=C/Cn3cnc(-c4ccccn4)c3)C(=O)O[C@]12C` (stereo partly drawn) [FSM-100421]: the MIC was 32 µg/mL (≈ 39.5 µM) in the assay on E. coli ATCC 25922 (E. coli ATCC 25922, Gram-negative); > 32 µg/mL against E. coli CTX-M-14; > 32 µg/mL in the assay with E. coli NDM-1; 32 µg/mL (≈ 39.5 µM) in the assay on E. coli TEM-1; 2 µg/mL (≈ 2.47 µM) against H. influenzae ATCC49247; 32 µg/mL (≈ 39.5 µM) against K. pneumoniae TEM-10. Besides, the MIC was 0.0625 µg/mL (≈ 0.0772 µM) against S. aureus ATCC 29213 (S. aureus ATCC 29213, Gram-positive); > 32 µg/mL against S. aureus MRSA: USA100; 2 µg/mL (≈ 2.47 µM) with S. aureus MRSA: USA300 (S. aureus MRSA: USA300, Gram-positive); > 32 µg/mL against S. aureus USA600, GISA; > 32 µg/mL against S. aureus erm A genotype; < 0.0312 µg/mL against S. pneumoniae ATCC 49619. Besides, the MIC in [10] was 0.0625 µg/mL (≈ 0.0772 µM); in the assay on S. pyogenes ATCC 19615 it was < 0.0312 µg/mL; in [11], < 0.0312 µg/mL; against E. faecalis ATCC 29212, < 0.0312 µg/mL; in assay [12], 32 µg/mL (≈ 39.5 µM); with A. baumannii ATCC 19606 (A. baumannii ATCC 19606, Gram-negative), 16 µg/mL (≈ 19.8 µM). Moreover, the MIC was 16 µg/mL (≈ 19.8 µM) in assay [13]; 32 µg/mL (≈ 39.5 µM) in assay [14]; > 32 µg/mL against A. baumannii IMP-4; 4 µg/mL (≈ 4.94 µM) against K. pneumoniae ATCC 10031 (K. pneumoniae ATCC 10031, Gram-negative); > 32 µg/mL in the assay on K. pneumoniae KPC-2; > 32 µg/mL with K. pneumoniae SHV-12. The MIC is > 32 µg/mL in the assay with P. aeruginosa ATCC 27853 (P. aeruginosa ATCC 27853, Gram-negative); > 32 µg/mL in [15]; 1 µg/mL (≈ 1.23 µM) in [16].
